Test results from patent publication US9073821B2, “Hydroxamic acid derivative” (priority 2010, dated 2015).

The compounds below were run against Pseudomonas aeruginosa LpxC enzyme (Pseudomonas aeruginosa (strain ATCC 15692 / DSM 22644 / CIP 104116 / JCM 14847 / LMG 12228 / 1C / PRS 101 / PAO1), UniProt P47205) (assay: biochemical). Settings: class symbols A/B/C by IC50; Table 3; read-out: Enzyme inhibitory activity (inhibitory activity on Pseudomonas aeruginosa LpxC enzyme).
Type: biochemical

IC50 | SMILES
< 10 nM | CCO/N=C/c1ccc(C#Cc2ccc(C(=O)N(C)C(C(=O)NC)C(=O)NO)cc2)o1 (centres unmarked) [Compound 501, 2-[{[4-({5-[(E)-(ethoxyimino)methyl]furan-2-yl}ethynyl)phenyl]carbonyl}(methyl)amino]-N-hydroxy-N′-methylpropanediamide]
10 to 100 nM | CNC(=O)C(C(=O)NO)N(C)C(=O)c1ccc(C#Cc2cnn(CCOC)c2)cc1 (centres unmarked) [Compound 518, N-hydroxy-2-{[(4-{[1-(2-methoxyethyl)-1H-pyrazol-4-yl]ethynyl}phenyl)carbonyl](methyl)amino}-N′-methylpropanediamide]
10 to 100 nM | CNC(=O)C(C(=O)NO)N(C)C(=O)c1ccc(C#Cc2cnn(C)c2)cc1 (centres unmarked) [Compound 504, N-hydroxy-N′-methyl-2-[methyl({4-[(1-methyl-1H-pyrazol-4-yl)ethynyl]phenyl}carbonyl)amino]propanediamide]
< 10 nM | CNC(=O)[C@@](C)(C(=O)NO)N(C)C(=O)c1ccc(C#Cc2cc(C)on2)cc1 [Compound 576, (2S)-N-hydroxy-N′,2-dimethyl-2-[methyl({4-[(5-methyl-1,2-oxazol-3-yl)ethynyl]phenyl}carbonyl)amino]propanediamide]
< 10 nM | CNC(=O)[C@@](C)(C(=O)NO)N(C)C(=O)c1ccc(C#Cc2coc(CN3CCOCC3)c2)cc1 [Compound 592, (2S)-N-hydroxy-N′,2-dimethyl-2-[methyl(4-{[5-(morpholin-4-ylmethyl)furan-3-yl]ethynyl}benzoyl)amino]propanediamide]

Same assay, conditions: inhibitory activity on Pseudomonas aeruginosa LpxC enzyme, class symbols A/B/C; read-out: Enzyme inhibitory activity

IC50 | SMILES
< 10 nM | CCCOc1ccc(-c2ccc(C(=O)N(C)C(C(=O)NC)C(=O)NO)cc2)cc1 (centres unmarked) [Compound 212, N-hydroxy-N′-methyl-2-{methyl[(4′-propoxybiphenyl-4-yl)carbonyl]amino}propanediamide]
> 100 nM | CNC(=O)C(C(=O)NO)N(C)C(=O)c1ccc(-c2cncc(C(F)(F)F)c2)cc1 (centres unmarked) [Compound 446, N-hydroxy-N′-methyl-2-[methyl({4-[5-(trifluoromethyl)pyridin-3-yl]phenyl}carbonyl)amino]propanediamide]
10 to 100 nM | CNC(=O)C(C(=O)NO)N(C)C(=O)c1ccc(-c2cccc(OC)c2)cc1 (centres unmarked) [Compound 279, N-hydroxy-2-{[(3′-methoxybiphenyl-4-yl)carbonyl](methyl)amino}-N′-methylpropanediamide]
< 10 nM | CNC(=O)C(NC(=O)c1ccc(C#Cc2ccc(NCCO)cc2)cc1)C(=O)NO (centres unmarked) [Compound 115, N-hydroxy-2-{[4-({4-[(2-hydroxyethyl)amino]phenyl}ethynyl)benzoyl]amino}-N′-methylpropanediamide]
< 10 nM | CNC(=O)C(C(=O)NO)N(C)C(=O)c1ccc(-c2ccc3c(c2)cc(COCOC)n3C)cc1 (centres unmarked) [Compound 33, N-hydroxy-2-[(4-{2-[(methoxymethoxy)methyl]-1-methyl-1H-indol-5-yl}benzoyl)(methyl)amino]-N′-methylpropanediamide]
10 to 100 nM | CNC(=O)C(C(=O)NO)N(C)C(=O)c1ccc(-c2ccc(O)cc2)cc1 (centres unmarked) [Compound 49, N-hydroxy-2-{[(4′-hydroxybiphenyl-4-yl)carbonyl](methyl)amino}-N′-methylpropanediamide]
< 10 nM | O=C(NC(C(=O)NO)C(=O)NCc1ccccn1)c1ccc(-c2ccc(OCCO)cc2)cc1 (centres unmarked) [Compound 130, N-hydroxy-2-({[4′-(2-hydroxyethoxy)biphenyl-4-yl]carbonyl}amino)-N′-(pyridin-2-ylmethyl)propanediamide]
10 to 100 nM | CNC(=O)C(C(=O)NO)N(C(=O)c1ccc(-c2ccccc2)cc1)C1CCC1 (centres unmarked) [Compound 163, 2-[(biphenyl-4-ylcarbonyl)(cyclobutyl)amino]-N-hydroxy-N′-methylpropanediamide]
< 10 nM | O=C(NC(C(=O)NO)C(=O)NCCOc1ccccc1)c1ccc(-c2ccc(OCCO)cc2)cc1 (centres unmarked) [Compound 138, N-hydroxy-2-({[4′-(2-hydroxyethoxy)biphenyl-4-yl]carbonyl}amino)-N′-(2-phenoxyethyl)propanediamide]
10 to 100 nM | CNC(=O)C(C(=O)NO)N(C)C(=O)c1ccc(-c2ccc(CNCC(F)F)cc2)cc1 (centres unmarked) [Compound 204, 2-{[(4′-{[(2,2-difluoroethyl)amino]methyl}biphenyl-4-yl)carbonyl](methyl)amino}-N-hydroxy-N′-methylpropanediamide]
> 100 nM | CNC(=O)C(C(=O)NO)N(C)C(=O)c1cnc(-c2ccccc2)cn1 (centres unmarked) [Compound 299, N-hydroxy-N′-methyl-2-{methyl[(5-phenylpyrazin-2-yl)carbonyl]amino}propanediamide]
< 10 nM | CNC(=O)C(C(=O)NO)N(C)C(=O)c1ccc(-c2ccc(OCc3cccc(CN4CCOCC4)c3)cc2)cc1 (centres unmarked) [Compound 87, N-hydroxy-N′-methyl-2-{methyl[(4′-{[3-(morpholin-4-ylmethyl)benzyl]oxy}biphenyl-4-yl)carbonyl]amino}propanediamide]
< 10 nM | CNC(=O)C(NC(=O)c1ccc(-c2ccc(OCCCN3CCCOCC3)cc2)cc1)C(=O)NO (centres unmarked) [Compound 112, N-hydroxy-N′-methyl-2-[({4′-[3-(1,4-oxazepan-4-yl)propoxy]biphenyl-4-yl}carbonyl)amino]propanediamide]
10 to 100 nM | O=C(NC(C(=O)NO)C(=O)NO)c1ccc(-c2ccccc2)cc1 [Compound 109, 2-[(biphenyl-4-ylcarbonyl)amino]-N,N′-dihydroxypropanediamide]
< 10 nM | CNC(=O)C(C(=O)NO)N(CC(F)F)C(=O)c1ccc(-c2ccccc2)cc1 (centres unmarked) [Compound 174, 2-[(biphenyl-4-ylcarbonyl)(2,2-difluoroethyl)amino]-N-hydroxy-N′-methylpropanediamide]
10 to 100 nM | CNC(=O)C(C(=O)NO)N(C)C(=O)c1ccc(-c2ccc(OCCOCCO)cc2)cc1 (centres unmarked) [Compound 15, N-hydroxy-2-[({4′-[2-(2-hydroxyethoxy)ethoxy]biphenyl-4-yl}carbonyl)(methyl)amino]-N′-methylpropanediamide]
< 10 nM | CNC(=O)C(C(=O)NO)N(C)C(=O)c1ccc(-c2ccc(OC)c(F)c2)cc1 (centres unmarked) [Compound 216, 2-{[(3′-fluoro-4′-methoxybiphenyl-4-yl)carbonyl](methyl)amino}-N-hydroxy-N′-methylpropanediamide]
< 10 nM | CNC(=O)C(C(=O)NO)N(C)C(=O)c1ccc(-c2ccc(OCCCN3CCC(F)(F)CC3)cc2)cc1 (centres unmarked) [Compound 264, 2-[({4′-[3-(4,4-difluoropiperidin-1-yl)propoxy]biphenyl-4-yl}carbonyl)(methyl)amino]-N-hydroxy-N′-methylpropanediamide]
< 10 nM | CNC(=O)C(C(=O)NO)N(C)C(=O)c1ccc(-c2ccc(OCCF)cc2)cc1 (centres unmarked) [Compound 255, 2-[{[4′-(2-fluoroethoxy)biphenyl-4-yl]carbonyl}(methyl)amino]-N-hydroxy-N′-methylpropanediamide]
< 10 nM | CNC(=O)C(C(=O)NO)N(C)C(=O)c1ccc(C#Cc2ccc(CNCc3cc(C)on3)cc2)cc1 (centres unmarked) [Compound 482, N-hydroxy-N′-methyl-2-{methyl[(4-{[4-({[(5-methyl-1,2-oxazol-3-yl)methyl]amino}methyl)phenyl]ethynyl}phenyl)carbonyl]amino}propanediamide]
10 to 100 nM | CNC(=O)C(C(=O)NO)N(C)C(=O)c1ccc(-c2ccc(OC)nc2)cc1 (centres unmarked) [Compound 449, N-hydroxy-2-[{[4-(6-methoxypyridin-3-yl)phenyl]carbonyl}(methyl)amino]-N′-methylpropanediamide]
< 10 nM | CNC(=O)C(C(=O)NO)N(C)C(=O)c1ccc(-c2ccc(NC)cc2F)cc1 (centres unmarked) [Compound 226, 2-[{[2′-fluoro-4′-(methylamino)biphenyl-4-yl]carbonyl}(methyl)amino]-N-hydroxy-N′-methylpropanediamide]
10 to 100 nM | CNC(=O)C(C(=O)NO)N(C)C(=O)c1ccc(-c2ccc(N3CCN(C)CC3)cc2)cc1 (centres unmarked) [Compound 267, N-hydroxy-N′-methyl-2-(methyl {[4′-(4-methylpiperazin-1-yl)biphenyl-4-yl]carbonyl}amino)propanediamide]
< 10 nM | CNC(=O)C(C(=O)NO)N(C)C(=O)c1ccc(-c2ccc(OCC(C)(C)O)cc2)cc1 (centres unmarked) [Compound 280, N-hydroxy-2-[{[4′-(2-hydroxy-2-methylpropoxy)biphenyl-4-yl]carbonyl}(methyl)amino]-N′-methylpropanediamide]
< 10 nM | CNC(=O)C(C(=O)NO)N(C)C(=O)c1ccc(C#Cc2ccc(CNCc3ccccc3)cc2)cc1 (centres unmarked) [Compound 330, 2-[{[4-({4-[(benzylamino)methyl]phenyl}ethynyl)phenyl]carbonyl}(methyl)amino]-N-hydroxy-N′-methylpropanediamide]
10 to 100 nM | CN(C(=O)c1ccc(-c2ccccc2)cc1)C(C(=O)NO)C(=O)NCc1ccccn1 (centres unmarked) [Compound 161, 2-[(biphenyl-4-ylcarbonyl)(methyl)amino]-N-hydroxy-N′-(pyridin-2-ylmethyl)propanediamide]
< 10 nM | CNC(=O)C(NC(=O)c1ccc(-c2ccc(OCCOCCO)cc2)cc1)C(=O)NO (centres unmarked) [Compound 14, N-hydroxy-2-[({4′-[2-(2-hydroxyethoxy)ethoxy]biphenyl-4-yl}carbonyl)amino]-N′-methylpropanediamide]
< 10 nM | CNC(=O)C(C(=O)NO)N(C)C(=O)c1ccc(-c2ccc(SCCCN3CCOCC3)cc2)cc1 (centres unmarked) [Compound 286, N-hydroxy-N′-methyl-2-{methyl[(4′-{[3-(morpholin-4-yl)propyl]sulfanyl}biphenyl-4-yl)carbonyl]amino}propanediamide]
> 100 nM | CNC(=O)C(C(=O)NO)N(C)C(=O)c1ccc(-c2ccc(CNCC(C)(C)C)cc2)cc1 (centres unmarked) [Compound 74, 2-{[(4′-{[(2,2-dimethylpropyl)amino]methyl}biphenyl-4-yl)carbonyl](methyl)amino}-N-hydroxy-N′-methylpropanediamide]

SMILES | IC50
CNC(=O)C(C)(C(=O)NO)N(C)C(=O)c1ccc(C#Cc2ccc(CN3CCCOCC3)cc2)cc1 (centres unmarked) [Compound 346, N-hydroxy-N′,2-dimethyl-2-{methyl[(4-{[4-(1,4-oxazepan-4-ylmethyl)phenyl]ethynyl}phenyl)carbonyl]amino}propanediamide] | < 10 nM
